From US7125662B2, “Method of identifying putative antibiotic resistance genes” (priority 2000, dated 2006)
Values after ≈ are worked out from the molar mass of the structure shown.

Tests used:
[1] = system: Salmonella enteritidis serovar typhimurium strain LT2; test: MIC, native Salmonella strain LT2; assay type: cell-based; details: for MIC: Salmonella enterica, read-out: Minimum Inhibitory Concentration; for sensitivity of the strain to the drug: native strain LT2
[2] = cited from earlier work; for Minimum Inhibitory Concentration, Clinical Resistance: Table 2, aminoglycosides; for Clin. = the MIC for clinical resistance: Table 1, β-lactams, unit assumed
DH5α-E/pAAC(6′)-Iaa = test: MIC, transgenic host expressing AAC(6′)-Iaa; assay type: cell-based, E. coli; details: for MIC: Escherichia coli, read-out: Minimum Inhibitory Concentration; for resistance conferred by plasmid pAAC(6′)-Iaa: transformed into E. coli strain DH5α-E
Method: (§1) The putative AAC(6′) aminogylcoside N6′-acetyltransferase gene from Salmonella enteritidis serovar typhimurium strain LT2, designated AAC(6′)-Iaa, was amplified by PCR and cloned into the expression vector pACSE2 (U.S. patent application Ser. No. 09/640,882 to Hall, filed Aug. 18, 2000, which is hereby incorporated by reference in its entirety). The resulting plasmid was designated pAAC(6′)-Iaa (FIG. 2A). The sequence of the AAC(6′)-Iaa coding region was determined by automated DNA sequencing and was confirmed to be identical to the sequence obtained from the incomplete genome sequence database (FIG. 2B).

DH5α-E/pACSE2 = test: MIC, host with empty expression vector; assay type: cell-based, E. coli; details: for MIC: Escherichia coli, read-out: Minimum Inhibitory Concentration
Method: as §1

[3] = system: host expressing Citrobacter freundii ampC gene LAT3; test: MIC conferred by ampC gene LAT3 cloned into common vector; assay type: cell-based
From the text: (§2) The plasmid-borne ampC genes shown in Table 1 (below) have been cloned into a common vector to ensure that all genes are expressed at the same level. […] That is completely expected because those genes were isolated from clinical samples and identified on the basis of conferring resistance to clinical drugs. ampC genes from two strains of Citrobacter freundii that were isolated in the 1920's, in the pre-antibiotic era, were also cloned into the same vector.

[4] = system: host expressing Citrobacter freundii ampC gene Cfre8454; test: MIC conferred by ampC gene Cfre8454 cloned into common vector; assay type: cell-based; details: for Minimum Inhibitory Concentration (MIC): Cfre 8454, gene from organism isolated in the 1920's
From the text: as §2

No Plasmid host = test: MIC, host with no plasmid (Table 1); assay type: cell-based
From the text: (§3) The plasmid-borne ampC genes shown in Table 1 (below) have been cloned into a common vector to ensure that all genes are expressed at the same level.

[5] = system: host expressing Citrobacter freundii ampC gene CMY2; test: MIC conferred by ampC gene CMY2 cloned into common vector; assay type: cell-based
From the text: as §2

[6] = system: host expressing Citrobacter freundii ampC gene CMY3b; test: MIC conferred by ampC gene CMY3b cloned into common vector; assay type: cell-based
From the text: as §2

[7] = system: host expressing Citrobacter freundii ampC gene LAT4; test: MIC conferred by ampC gene LAT4 cloned into common vector; assay type: cell-based
From the text: as §2

[8] = system: host expressing Citrobacter freundii ampC gene Cfre6879; test: MIC conferred by ampC gene Cfre6879 cloned into common vector; assay type: cell-based; details: Cfre 6879, gene from organism isolated in the 1920's
From the text: as §2

[9] = system: host expressing Citrobacter freundii ampC gene LAT1; test: MIC conferred by ampC gene LAT1 cloned into common vector; assay type: cell-based
From the text: as §2

E. coli K12 ampC = details: gene cloned into a plasmid, effective promoter; cited from earlier work
[10] = system: host expressing Citrobacter freundii ampC gene LAT2; test: MIC conferred by ampC gene LAT2 cloned into common vector; assay type: cell-based
From the text: as §2

[11] = system: plasmid-borne ampC genes CMY-2, CMY-3b, LAT-1, LAT-2, LAT-3, and LAT-4; test: Clinical resistance conferred by plasmid-borne ampC genes as a group; assay type: cell-based, Citrobacter freundii; details: all of CMY-2, CMY-3b, LAT-1, LAT-2, LAT-3, LAT-4
From the text: as §3

[12] = system: evolved E. coli ampC gene; details: two or three laboratory-induced mutations; cited from earlier work
[13] = S. enteritidis serovar typhimurium LT2

Compound	Minimum Inhibitory Concentration (MIC) [3]	Minimum Inhibitory Concentration (MIC) [4]	Minimum Inhibitory Concentration (MIC) (No Plasmid host)	Minimum Inhibitory Concentration (MIC) [5]	Minimum Inhibitory Concentration (MIC) [6]	Minimum Inhibitory Concentration (MIC) [7]	Clin. = the MIC for clinical resistance [2] [µg/mL]	Minimum Inhibitory Concentration (MIC) [8]	Minimum Inhibitory Concentration (MIC) [9]	Minimum Inhibitory Concentration (MIC) [10]	clinical resistance conferred [11]	resistance conferred after further evolution [12]	other results
NCC[C@H](O)C(=O)N[C@@H]1C[C@H](N)[C@@H](O[C@H]2O[C@H](CN)[C@@H](O)[C@H](O)[C@H]2O)[C@H](O)[C@H]1O[C@H]1O[C@H](CO)[C@@H](O)[C@H](N)[C@H]1O [Amikacin]	–	–	–	–	–	–	–	–	–	–	–	–	MIC [1, 13]: 4 µg/mL (≈ 6.83 µM); sensitivity of the strain to the drug [1]: sensitive; Minimum Inhibitory Concentration, Clinical Resistance [2]: 32 µg/mL; MIC (DH5α-E/pAAC(6′)-Iaa; DH5α-E/pAAC(6′)-Iaa): 8 µg/mL (≈ 13.7 µM); resistance conferred by plasmid pAAC(6′)-Iaa (DH5α-E/pAAC(6′)-Iaa): not; MIC (DH5α-E/pACSE2): 0.25 µg/mL (≈ 0.427 µM)
CC1(C)S[C@@H]2[C@H](NC(=O)[C@H](N)c3ccccc3)C(=O)N2[C@H]1C(=O)O [Ampicillin]	1024	2048	2	1024	1024	1024	32	1024	1024	2048	confer clinical resistance	–	clinical resistance conferred (E. coli K12 ampC): confers clinical resistance
C[C@H]1[C@H](NC(=O)/C(=N\OC(C)(C)C(=O)O)c2csc(N)n2)C(=O)N1S(=O)(=O)O [Aztreonam]	64	128	–	16	128	128	–	256	256	64	–	confer resistance	–
CO/N=C(\C(=O)N[C@@H]1C(=O)N2C(C(=O)O)=C(COC(C)=O)CS[C@H]12)c1csc(N)n1 [Cefotaxime]	128	128	–	64	64	256	64	128	64	64	confer clinical resistance	–	–
CC(C)(O/N=C(\C(=O)N[C@@H]1C(=O)N2C(C(=O)[O-])=C(C[n+]3ccccc3)CS[C@H]12)c1csc(N)n1)C(=O)O [Ceftazidime]	256	8	0.25	128	256	256	32	512	256	256	confer clinical resistance	confer resistance	resistance conferred ([4]; Cfre8454, without any additional mutations): does not confer clinical resistance
CO/N=C(\C(=O)N[C@@H]1C(=O)N2C(C(=O)O)=C(COC(N)=O)CS[C@H]12)c1ccco1 [Cefuroxime]	1024	512	8	256	1024	2048	32	512	2048	256	confer clinical resistance	–	clinical resistance conferred (E. coli K12 ampC): confers clinical resistance
NC[C@H]1O[C@H](O[C@H]2[C@H](O)[C@@H](O[C@H]3O[C@H](CO)[C@@H](O)[C@H](N)[C@H]3O)[C@H](N)C[C@@H]2N)[C@H](O)[C@@H](O)[C@@H]1O [Kanamycin]	–	–	–	–	–	–	–	–	–	–	–	–	MIC [1, 13]: 4 µg/mL (≈ 8.26 µM); MIC (DH5α-E/pAAC(6′)-Iaa; DH5α-E/pAAC(6′)-Iaa): 32 µg/mL (≈ 66 µM); MIC (DH5α-E/pACSE2): 0.125 µg/mL (≈ 0.258 µM)
CCN1CCN(C(=O)N[C@@H](C(=O)N[C@@H]2C(=O)N3[C@@H]2SC(C)(C)[C@@H]3C(=O)O)c2ccccc2)C(=O)C1=O [Pipericillin]	512	512	2	256	128	512	128	512	128	256	confer clinical resistance	confer resistance	–
CO[C@@]1(NC(=O)C(C(=O)O)c2ccsc2)C(=O)N2[C@@H](C(=O)O)C(C)(C)S[C@@H]21 (some centres unmarked) [Temocillin]	64	32	4	32	32	64	32	32	64	32	confer clinical resistance	confer resistance	–
NC[C@H]1O[C@H](O[C@H]2[C@H](O)[C@@H](O[C@H]3O[C@H](CO)[C@@H](O)[C@H](N)[C@H]3O)[C@H](N)C[C@@H]2N)[C@H](N)C[C@@H]1O [Tobramycin]	–	–	–	–	–	–	–	–	–	–	–	–	MIC [1, 13]: 4 µg/mL (≈ 8.56 µM); sensitivity of the strain to the drug [1]: sensitive; Minimum Inhibitory Concentration, Clinical Resistance [2]: 8 µg/mL; MIC (DH5α-E/pAAC(6′)-Iaa; DH5α-E/pAAC(6′)-Iaa): 16 µg/mL (≈ 34.2 µM); resistance conferred by plasmid pAAC(6′)-Iaa (DH5α-E/pAAC(6′)-Iaa): conferred resistance; MIC (DH5α-E/pACSE2): 0.25 µg/mL (≈ 0.535 µM)
Gentamycin	–	–	–	–	–	–	–	–	–	–	–	–	Minimum Inhibitory Concentration [1, 13]: 2 µg/mL; sensitivity of the strain to the drug [1]: sensitive; Minimum Inhibitory Concentration, Clinical Resistance [2]: 8 µg/mL; Minimum Inhibitory Concentration (DH5α-E/pAAC(6′)-Iaa; DH5α-E/pAAC(6′)-Iaa): 0.5 µg/mL; resistance conferred by plasmid pAAC(6′)-Iaa (DH5α-E/pAAC(6′)-Iaa): not; Minimum Inhibitory Concentration (DH5α-E/pACSE2): 0.25 µg/mL
